Test system: HT-29
Test: Cytotoxicity in human HT-29 cells assessed as inhibition of cell growth incubated for 72 hrs by MTT assay
Format: functional, cell-based
Conditions: HT-29, 72 h

C[C@H](O)[C@@]12CN3CCc4c([nH]c5ccccc45)[C@@H]3C[C@@H]1C(=O)CO2
IC50: > 30 µM

C=C1c2[nH]c3ccccc3c2C[C@H]2[N@]3CC[C@]12/C(=C\C)C3
IC50: 6.2 µM
